Laboratory results published in PubChem BioAssay (NCI).
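Protocol summary: plate cells (96-well), add compound at 5 concentrations, incubate 48 h, interpolate endpoints linearly. TGI is the concentration that stops growth completely.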

Legend:
Assay in all cases: NCI-60 cell line screen, 48 h
HCT-116 colon = test system: HCT-116 colon
NCI-H460 lung = test system: NCI-H460 lung
HT29 colon = test system: HT29 colon
SF-268 CNS = test system: SF-268 CNS
TK-10 renal = test system: TK-10 renal
CAKI-1 renal = test system: CAKI-1 renal
RXF 393 renal = test system: RXF 393 renal
OVCAR-3 ovarian = test system: OVCAR-3 ovarian
A498 renal = test system: A498 renal
CCRF-CEM leukemia = test system: CCRF-CEM leukemia
SF-295 CNS = test system: SF-295 CNS
SN12C renal = test system: SN12C renal
M14 melanoma = test system: M14 melanoma
SW-620 colon = test system: SW-620 colon
K-562 leukemia = test system: K-562 leukemia
OVCAR-5 ovarian = test system: OVCAR-5 ovarian
SR leukemia = test system: SR leukemia
U251 CNS = test system: U251 CNS
SK-MEL-2 melanoma = test system: SK-MEL-2 melanoma
UACC-62 melanoma = test system: UACC-62 melanoma
LOX IMVI melanoma = test system: LOX IMVI melanoma
MOLT-4 leukemia = test system: MOLT-4 leukemia
RPMI-8226 leukemia = test system: RPMI-8226 leukemia
OVCAR-8 ovarian = test system: OVCAR-8 ovarian
HOP-92 NSCLC = test system: HOP-92 NSCLC
SK-MEL-28 melanoma = test system: SK-MEL-28 melanoma
A549 NSCLC = test system: A549 NSCLC
M19-MEL melanoma = test system: M19-MEL melanoma
HOP-62 NSCLC = test system: HOP-62 NSCLC
UO-31 renal = test system: UO-31 renal
SK-MEL-5 melanoma = test system: SK-MEL-5 melanoma
HL-60(TB) leukemia = test system: HL-60(TB) leukemia
HOP-18 NSCLC = test system: HOP-18 NSCLC
SNB-19 CNS = test system: SNB-19 CNS
786-0 renal = test system: 786-0 renal
ACHN renal = test system: ACHN renal
SF-539 CNS = test system: SF-539 CNS
IGROV1 ovarian = test system: IGROV1 ovarian
NCI-H226 lung = test system: NCI-H226 lung
DMS 273 small cell lung = test system: DMS 273 small cell lung
COLO 205 colon = test system: COLO 205 colon
SNB-78 CNS = test system: SNB-78 CNS
LXFL 529 NSCLC = test system: LXFL 529 NSCLC
DMS 114 small cell lung = test system: DMS 114 small cell lung
NCI-H23 lung = test system: NCI-H23 lung
SK-OV-3 ovarian = test system: SK-OV-3 ovarian
EKVX NSCLC = test system: EKVX NSCLC
HCC-2998 colon = test system: HCC-2998 colon
HCT-15 colon = test system: HCT-15 colon
MALME-3M melanoma = test system: MALME-3M melanoma
NCI-H522 lung = test system: NCI-H522 lung
KM12 colon = test system: KM12 colon
UACC-257 melanoma = test system: UACC-257 melanoma
SNB-75 CNS = test system: SNB-75 CNS
KM20L2 colon = test system: KM20L2 colon
DLD-1 colon = test system: DLD-1 colon
OVCAR-4 ovarian = test system: OVCAR-4 ovarian

With `O=C(Nc1nccs1)c1cc(C2=CC=CC([N+](=O)[O-])C=C2)nc(=S)[nH]1` (stereo not drawn) the TGI (HCT-116 colon) was > 100 µM, the TGI (NCI-H460 lung) was > 100 µM and the TGI (HT29 colon) was > 100 µM. The TGI (SF-268 CNS) was > 100 µM, the TGI (TK-10 renal) was > 100 µM and the TGI (CAKI-1 renal) was > 100 µM. For the same compound, the TGI (RXF 393 renal) was > 100 µM, the TGI (OVCAR-3 ovarian) was > 100 µM and the TGI (A498 renal) was > 100 µM. The TGI (CCRF-CEM leukemia) was > 100 µM, the TGI (SF-295 CNS) was > 100 µM and the TGI (SN12C renal) was > 100 µM. For the same compound, the TGI (M14 melanoma) was > 100 µM, the TGI (SW-620 colon) was > 100 µM and the TGI (K-562 leukemia) was > 100 µM. The TGI (OVCAR-5 ovarian) was > 100 µM, the TGI (SR leukemia) was > 100 µM and the TGI (U251 CNS) was > 100 µM. The TGI (SK-MEL-2 melanoma) was > 100 µM, the TGI (UACC-62 melanoma) was > 100 µM and the TGI (LOX IMVI melanoma) was > 100 µM. The TGI (MOLT-4 leukemia) was > 100 µM, the TGI (RPMI-8226 leukemia) was > 100 µM and the TGI (OVCAR-8 ovarian) was > 100 µM. For the same compound, the TGI (HOP-92 NSCLC) was > 100 µM, the TGI (SK-MEL-28 melanoma) was > 100 µM and the TGI (A549 NSCLC) was > 100 µM. For the same compound, the TGI (M19-MEL melanoma) was > 100 µM, the TGI (HOP-62 NSCLC) was > 100 µM and the TGI (UO-31 renal) was > 100 µM. For the same compound, the TGI (SK-MEL-5 melanoma) was > 100 µM, the TGI (HL-60(TB) leukemia) was > 100 µM and the TGI (HOP-18 NSCLC) was > 100 µM. The TGI (SNB-19 CNS) was > 100 µM, the TGI (786-0 renal) was > 100 µM and the TGI (ACHN renal) was > 100 µM. For the same compound, the TGI (SF-539 CNS) was > 100 µM, the TGI (IGROV1 ovarian) was > 100 µM and the TGI (NCI-H226 lung) was > 100 µM. The TGI (DMS 273 small cell lung) was > 100 µM, the TGI (COLO 205 colon) was > 100 µM and the TGI (SNB-78 CNS) was > 100 µM. The TGI (LXFL 529 NSCLC) was > 100 µM, the TGI (DMS 114 small cell lung) was > 100 µM and the TGI (NCI-H23 lung) was > 100 µM. For the same compound, the TGI (SK-OV-3 ovarian) was > 100 µM, the TGI (EKVX NSCLC) was > 100 µM and the TGI (HCC-2998 colon) was > 100 µM. For the same compound, the TGI (HCT-15 colon) was > 100 µM, the TGI (MALME-3M melanoma) was > 100 µM and the TGI (NCI-H522 lung) was > 100 µM. For the same compound, the TGI (KM12 colon) was > 100 µM, the TGI (UACC-257 melanoma) was > 100 µM and the TGI (SNB-75 CNS) was > 100 µM. The TGI (KM20L2 colon) was > 100 µM.
`COC1CC(OS(=O)(=O)c2ccc(C)cc2)C(OS(=O)(=O)c2ccc(C)cc2)C(COS(=O)(=O)c2ccc(C)cc2)O1` (stereo not drawn) was tested, and the TGI (HCT-116 colon) was > 100 µM, the TGI (NCI-H460 lung) was 24.7 µM and the TGI (HT29 colon) was 15.1 µM. The TGI (DLD-1 colon) was 22.7 µM, the TGI (SF-268 CNS) was 3.02 µM and the TGI (CAKI-1 renal) was 7.7 µM. For the same compound, the TGI (RXF 393 renal) was 4.64 µM, the TGI (OVCAR-3 ovarian) was 5.62 µM and the TGI (CCRF-CEM leukemia) was > 100 µM. The TGI (OVCAR-4 ovarian) was 1.12 µM, the TGI (SF-295 CNS) was 4.38 µM and the TGI (SN12C renal) was 20.8 µM. For the same compound, the TGI (M14 melanoma) was 17.8 µM, the TGI (SW-620 colon) was 57.7 µM and the TGI (K-562 leukemia) was > 100 µM. For the same compound, the TGI (OVCAR-5 ovarian) was 51.5 µM, the TGI (SR leukemia) was 33.6 µM and the TGI (U251 CNS) was 11.6 µM. The TGI (SK-MEL-2 melanoma) was 20.1 µM, the TGI (UACC-62 melanoma) was 18.6 µM and the TGI (MOLT-4 leukemia) was > 100 µM. It also gave a TGI (RPMI-8226 leukemia) of 86 µM, a TGI (OVCAR-8 ovarian) of 6.06 µM and a TGI (SK-MEL-28 melanoma) of 13.4 µM. The TGI (A549 NSCLC) was 19.3 µM, the TGI (M19-MEL melanoma) was 20 µM and the TGI (HOP-62 NSCLC) was 5.09 µM. The TGI (UO-31 renal) was 12.1 µM, the TGI (SK-MEL-5 melanoma) was 25.7 µM and the TGI (HL-60(TB) leukemia) was > 100 µM. It also gave a TGI (HOP-18 NSCLC) of 8.36 µM, a TGI (SNB-19 CNS) of 5.58 µM and a TGI (786-0 renal) of 4.06 µM. For the same compound, the TGI (ACHN renal) was 12.7 µM, the TGI (SF-539 CNS) was 6.65 µM and the TGI (IGROV1 ovarian) was 17.2 µM. The TGI (NCI-H226 lung) was 10.4 µM, the TGI (DMS 273 small cell lung) was 18.6 µM and the TGI (COLO 205 colon) was > 100 µM. For the same compound, the TGI (SNB-78 CNS) was > 100 µM, the TGI (LXFL 529 NSCLC) was 18.7 µM and the TGI (DMS 114 small cell lung) was 15.1 µM. It also gave a TGI (NCI-H23 lung) of 15.6 µM, a TGI (SK-OV-3 ovarian) of 8.62 µM and a TGI (EKVX NSCLC) of 24.4 µM. It also gave a TGI (HCC-2998 colon) of 49.3 µM, a TGI (HCT-15 colon) of 19 µM and a TGI (MALME-3M melanoma) of 8.57 µM. For the same compound, the TGI (NCI-H522 lung) was 16 µM, the TGI (KM12 colon) was > 100 µM and the TGI (UACC-257 melanoma) was 21 µM. The TGI (SNB-75 CNS) was 2.48 µM and the TGI (KM20L2 colon) was 30.9 µM.
